Values of other authors, collected in patent US20250073301A1, “Delayed Release Compositions of Linaclotide” (Ironwood Pharmaceuticals, Inc., priority 2013, published 2025).
Ends that are not written are not given here.

Settings: human volunteers, oral linaclotide

## CCEYCCNPACTGCY (cysteine pairing not given here) [linaclotide]
  oral dose found in feces: about 5%
